Drawing on patent US6319916A, “Heterocyclic compounds, their production and use” (Takeda Chemical Industries, Ltd., priority 1992, dated 2001), this text covers IC50 and Immobility for 7 compounds.

Structures can show the parent of a compound that is named as a salt.

A word on the IC50: it is the midpoint of a concentration-inhibition curve. A low value points to greater potency in that assay.

In the first assay the target is T1, Acetylcholinesterase (Rattus norvegicus, UniProt P37136).
T1 construct: S1 fraction of a homogenate of male Wistar rat cerebral cortex as the cholinesterase source; from tissue; host or cells: male Wistar rat cerebral cortex, S1 fraction of homogenate
T1 sequence (P37136 32-614): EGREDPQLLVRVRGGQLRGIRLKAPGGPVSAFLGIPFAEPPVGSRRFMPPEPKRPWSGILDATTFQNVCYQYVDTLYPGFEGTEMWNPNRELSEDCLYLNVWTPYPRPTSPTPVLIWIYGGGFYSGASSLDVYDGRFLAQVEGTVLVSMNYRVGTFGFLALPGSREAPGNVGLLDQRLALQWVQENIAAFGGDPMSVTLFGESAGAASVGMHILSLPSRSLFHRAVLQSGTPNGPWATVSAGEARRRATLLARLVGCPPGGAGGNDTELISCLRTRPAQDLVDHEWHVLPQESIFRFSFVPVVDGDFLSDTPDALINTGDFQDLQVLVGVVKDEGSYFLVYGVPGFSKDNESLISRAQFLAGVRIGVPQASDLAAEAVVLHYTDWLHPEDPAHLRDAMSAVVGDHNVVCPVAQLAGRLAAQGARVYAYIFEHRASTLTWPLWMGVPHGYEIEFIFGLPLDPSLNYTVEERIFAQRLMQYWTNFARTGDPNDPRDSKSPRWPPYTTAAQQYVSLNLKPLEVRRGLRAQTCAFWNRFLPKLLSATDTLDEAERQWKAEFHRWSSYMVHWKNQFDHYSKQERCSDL
The experiment in a line: Cholinesterase inhibitory activity with (acetyl[^3 H])-acetylcholine. In kind it is biochemical. Particulars: S1 fraction of homogenate of male Wistar rat cerebral cortex; 30 minutes incubation.
Procedure: The cholinesterase inhibitory activity of the compound of this invention was assayed with (acetyl[^3 H])-acetylcholine. More specifically, (acetyl[^3 H])-acetylcholine as the substrate and the compound of this invention as the test sample were added to the S1 fraction of a homogenate of male Wistar rat cerebral cortex as the cholinesterase source. The mixture was incubated for 30 minutes, after completion of the reaction, to the reaction mixture was added a toluene-based scintillator, and the mixture was shaken. The reaction product [^3 H]-acetic acid was transferred to the toluene layer, which was subjected to determination of cholinesterase inhibitory activity by counting with a liquid scintillation counter.
The cholinesterase inhibitory activity of the test compound was expressed in 50% inhibitory concentration (IC50).
`Cl.Cl.O=C(CCC1CCN(Cc2ccccc2)CC1)c1ccc2c(c1)CN(Cc1ccccc1)CCO2` [3-B, 1-[4-(Phenylmethyl)-2,3,4,5-tetrahydro-1,4-benzoxazepin-7-yl]-3-[1-(phenylmethyl)piperidin-4-yl]-1-propanone dihydrochloride]: it took 119 nM to reach half-maximal inhibition (IC50).

Turning to `CC(=O)N1CCOc2ccc(C(=O)CCC3CCN(Cc4ccccc4)CC3)cc2C1` [Example 4, 1-(4-Acetyl-2,3,4,5-tetrahydro-1,4-benzoxazepin-7-yl)-3-[1-(phenylmethyl)piperidin-4-yl]-1-propanone hydrochloride], the half-maximal inhibitory concentration (IC50) stood at 54.5 nM.

Compound `O=CN1CCOc2ccc(C(=O)CCN3CCN(Cc4ccccc4)CC3)cc2C1` [Example 6, 1-(4-Formyl-2,3,4,5-tetrahydro-1,4-benzoxazepin-7-yl)-3-[4-(phenylmethyl)piperazin-1-yl]-1-propanone dihydrochloride] gave a 50% inhibitory concentration (IC50) of 107 nM.

The compound `O=C(CCC1CCN(Cc2ccccc2)CC1)c1ccc2c(c1)CN(Cc1ccc([N+](=O)[O-])cc1)CCO2` [8-5] yielded a 50% inhibitory concentration (IC50) of 12.7 nM.

`COc1ccc(CN2CCOc3ccc(C(=O)CCC4CCN(Cc5ccccc5)CC4)cc3C2)cc1` [Example 5, 1-[4-(4-Methoxyphenylmethyl)-2,3,4,5-tetrahydro-1,4-benzoxazepin-7-yl]-3-[1-(phenylmethyl)piperidin-4-yl]-1-propanone dihydrochloride] gave an IC50 of 69.6 nM.

Regarding `O=C(CCC1CCN(Cc2ccccc2)CC1)c1ccc2c(c1)CNCCO2` [3-A, 3-[1-(Phenylmethyl)piperidin-4-yl]-1-(2,3,4,5-tetrahydro-1,4-benzoxazepin-7-yl)-1-propanone dihydrochloride], 17.5 nM corresponded to half-maximal inhibition (IC50).

For a further assay, the system named is mice. Kind of assay: Antidepressant activity, tail suspension test. The assay is classed as in vivo, ICR male mice. Particulars: 30 mg/kg, oral; thirty minutes later suspended on tails for 10 minutes; **P < 0.01; saline 49.45 ± 2.47. The method, then:
The antidepressant activity of the compound of the present invention was assayed by means of tail suspension test using ICR male mice (five weeks of age, weighing 23.5 to 37.6 g) as test animals. […]. Thirty minutes later, the mice were suspended on tails for 10 minutes and immobility thereof (% control) was measured. The antidepressant activity of the test compound was shown as in percent control of immobility. As a comparative compound, desipramine, which is known to have an antidepressant activity, was employed and the immobility thereof was measured in the same manner as described above.
Take `Cl.Cl.O=C(CCC1CCN(Cc2ccccc2)CC1)c1ccc2c(c1)CN(Cc1ccccc1)CCO2` [3-B, 1-[4-(Phenylmethyl)-2,3,4,5-tetrahydro-1,4-benzoxazepin-7-yl]-3-[1-(phenylmethyl)piperidin-4-yl]-1-propanone dihydrochloride]: the Immobility amounted to 34.37 ± 4.49%.

Turning to `CNCCCN1c2ccccc2CCc2ccccc21` [desipramine, reference compound], the Immobility amounted to 37.25 ± 3.32%.
